# Laboratory results reported in ChEMBL document CHEMBL1144513, “Synthesis and SAR study of novel 7-(pyridinium-3-yl)-carbonyl imidazo[5,1-b]thiazol-2-yl carbapenems” (2007).
# Experiments:
# Format in all cases: functional
# Escherichia coli = assay: Antibacterial activity against Escherichia coli NIHJ JC2 by agar dilution method
# Staphylococcus aureus [1] = assay: Antibacterial activity against Staphylococcus aureus 209P JC1 by agar dilution method
# Staphylococcus aureus [2] = assay: Antibacterial activity against methicillin-resistant Staphylococcus aureus M126 by agar dilution method
# Streptococcus pneumoniae = assay: Antibacterial activity against penicillin-resistant Streptococcus pneumoniae KK133 by agar dilution method
# Klebsiella pneumoniae = assay: Antibacterial activity against Klebsiella pneumoniae GN69 by agar dilution method
# Moraxella catarrhalis = assay: Antibacterial activity against Moraxella catarrhalis W-0500 by agar dilution method
# Staphylococcus aureus [3] = assay: Antibacterial activity against carbapenem and methicillin-resistant Staphylococcus aureus M126HR by agar dilution method
# Haemophilus influenzae = assay: Antibacterial activity against beta-lactamase-negative ampicillin-resistant Haemophilus influenzae 870 by agar dilution method
smiles,measurement,setting,value
C[C@@H](O)[C@H]1C(=O)N2C(C(=O)O)=C(c3cn4cnc(C(=O)c5cnc6ccccc6c5)c4s3)[C@H](C)[C@H]12,MIC,Escherichia coli,4 µg/mL
same,MIC,Staphylococcus aureus [1],≤ 0.008 µg/mL
same,MIC,Staphylococcus aureus [2],0.016 µg/mL
same,MIC,Streptococcus pneumoniae,0.031 µg/mL
same,MIC,Klebsiella pneumoniae,8 µg/mL
same,MIC,Moraxella catarrhalis,0.031 µg/mL
same,MIC,Staphylococcus aureus [3],2 µg/mL
same,MIC,Haemophilus influenzae,0.125 µg/mL
